Experimental data from ChEMBL document CHEMBL1141452, “Advances in development of dopaminergic aporphinoids” (J Med Chem, 2007).

Columns and labels:
D(1A) dopamine receptor = D(1A) dopamine receptor (Rattus norvegicus, UniProt P18901); assay: Displacement of [3H]SCH-23390 from rat dopamine D1 receptor
D(2) dopamine receptor = D(2) dopamine receptor (Rattus norvegicus, UniProt P61169); assay: Displacement of [3H]raclopride from rat dopamine D2 receptor
[1] = target: 5-hydroxytryptamine receptor 7 (Rattus norvegicus) (UniProt P32305); assay: Displacement of [3H]5-HT from rat 5-HT7 receptor
[2] = target: T1, 5-hydroxytryptamine receptor 1A (Rattus norvegicus, UniProt P19327); assay: Displacement of [3H]8-OH-DPAT from rat 5HT1A receptor
T1 sequence (P19327 whole entry): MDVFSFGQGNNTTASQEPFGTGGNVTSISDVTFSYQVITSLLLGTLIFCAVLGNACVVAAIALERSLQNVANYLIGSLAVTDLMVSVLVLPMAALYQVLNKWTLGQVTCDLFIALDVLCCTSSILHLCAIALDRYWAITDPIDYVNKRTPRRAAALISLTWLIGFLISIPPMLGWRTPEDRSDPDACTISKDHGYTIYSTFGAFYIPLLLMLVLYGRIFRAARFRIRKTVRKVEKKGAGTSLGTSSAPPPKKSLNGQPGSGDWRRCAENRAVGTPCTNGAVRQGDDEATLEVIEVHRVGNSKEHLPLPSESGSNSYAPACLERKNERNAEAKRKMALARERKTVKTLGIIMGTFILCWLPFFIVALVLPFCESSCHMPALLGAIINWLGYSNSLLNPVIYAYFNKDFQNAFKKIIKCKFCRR

[3] = target: Sodium-dependent dopamine transporter (Rattus norvegicus, UniProt P23977); assay: Displacement of [3H]DA from rat DAT
[4] = Inhibition of rat midbrain dopaminergic neuron firing; type: functional; conditions: read-out: ID50 (the source's name)

Sequence of D(2) dopamine receptor (P61169 whole entry): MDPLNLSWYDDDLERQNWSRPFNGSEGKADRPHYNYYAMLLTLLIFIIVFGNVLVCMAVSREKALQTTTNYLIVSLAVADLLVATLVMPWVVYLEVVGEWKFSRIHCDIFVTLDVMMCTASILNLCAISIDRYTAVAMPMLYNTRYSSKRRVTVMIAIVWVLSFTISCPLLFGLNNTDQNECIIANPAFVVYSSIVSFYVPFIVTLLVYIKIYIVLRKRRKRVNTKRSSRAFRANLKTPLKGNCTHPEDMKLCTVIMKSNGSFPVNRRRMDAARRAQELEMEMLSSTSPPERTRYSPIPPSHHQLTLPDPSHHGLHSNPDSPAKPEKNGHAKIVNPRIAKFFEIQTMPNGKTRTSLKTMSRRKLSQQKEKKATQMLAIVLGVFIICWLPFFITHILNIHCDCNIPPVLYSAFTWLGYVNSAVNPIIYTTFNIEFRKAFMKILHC
Sequence of Sodium-dependent dopamine transporter (P23977 whole entry): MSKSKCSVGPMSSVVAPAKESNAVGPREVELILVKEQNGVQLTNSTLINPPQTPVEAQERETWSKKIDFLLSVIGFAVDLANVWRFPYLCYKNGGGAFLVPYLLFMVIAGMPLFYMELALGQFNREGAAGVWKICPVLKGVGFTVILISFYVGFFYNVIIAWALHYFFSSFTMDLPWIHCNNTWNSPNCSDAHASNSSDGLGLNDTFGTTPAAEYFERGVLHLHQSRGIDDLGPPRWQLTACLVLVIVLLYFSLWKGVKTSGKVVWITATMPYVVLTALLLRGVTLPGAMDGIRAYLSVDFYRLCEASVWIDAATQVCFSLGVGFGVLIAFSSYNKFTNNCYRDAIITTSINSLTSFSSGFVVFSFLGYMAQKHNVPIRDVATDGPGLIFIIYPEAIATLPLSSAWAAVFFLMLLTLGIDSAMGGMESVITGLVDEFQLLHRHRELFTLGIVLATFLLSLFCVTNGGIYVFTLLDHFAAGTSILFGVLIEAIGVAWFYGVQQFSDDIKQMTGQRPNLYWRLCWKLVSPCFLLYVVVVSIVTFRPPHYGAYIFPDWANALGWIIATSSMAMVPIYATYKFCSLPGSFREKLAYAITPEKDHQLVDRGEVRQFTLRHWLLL
Sequence of D(1A) dopamine receptor (P18901 whole entry): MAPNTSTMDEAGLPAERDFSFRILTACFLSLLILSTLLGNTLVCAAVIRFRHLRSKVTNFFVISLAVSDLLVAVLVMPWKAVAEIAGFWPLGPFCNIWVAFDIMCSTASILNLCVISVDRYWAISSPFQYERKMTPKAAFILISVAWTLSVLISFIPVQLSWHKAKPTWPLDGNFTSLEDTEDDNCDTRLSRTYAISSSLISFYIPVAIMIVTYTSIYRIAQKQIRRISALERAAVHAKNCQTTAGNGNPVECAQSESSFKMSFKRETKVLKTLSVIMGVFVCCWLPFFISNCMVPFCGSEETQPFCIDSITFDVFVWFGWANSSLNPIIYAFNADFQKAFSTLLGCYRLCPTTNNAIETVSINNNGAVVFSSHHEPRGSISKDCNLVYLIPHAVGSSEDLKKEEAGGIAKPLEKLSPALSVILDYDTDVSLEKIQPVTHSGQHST
Sequence of 5-hydroxytryptamine receptor 7 (Rattus norvegicus) (P32305 whole entry, looked up): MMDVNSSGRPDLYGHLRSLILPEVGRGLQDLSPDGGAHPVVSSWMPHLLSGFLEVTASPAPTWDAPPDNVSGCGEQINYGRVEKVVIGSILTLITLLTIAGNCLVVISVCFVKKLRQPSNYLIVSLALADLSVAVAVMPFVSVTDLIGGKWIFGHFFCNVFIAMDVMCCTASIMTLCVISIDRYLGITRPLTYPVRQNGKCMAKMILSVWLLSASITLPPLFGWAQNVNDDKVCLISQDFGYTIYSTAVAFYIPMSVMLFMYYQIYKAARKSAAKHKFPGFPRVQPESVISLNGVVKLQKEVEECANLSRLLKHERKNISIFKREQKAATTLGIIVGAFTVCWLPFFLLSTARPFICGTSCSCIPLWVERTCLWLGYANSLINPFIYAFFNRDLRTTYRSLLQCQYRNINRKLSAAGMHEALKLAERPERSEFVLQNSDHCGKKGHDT

Row | Structure (SMILES) | Ki (D(1A) dopamine receptor) [µM] | Ki (D(2) dopamine receptor) [nM] | also measured
1 | CCN1CCc2cc(OC)cc3c2C1Cc1ccccc1C3 (stereo unspecified) | 6.6 | 9700 | 
2 | CCCCC(=O)Oc1cccc2c1-c1cccc3c1[C@@H](C2)N(CCC)CC3 | > 20 | 34 | 
3 | COc1cc2c(cc1O)C[C@@H]1NCCc3cc(O)c(OC)c-2c31 [NORBOLDINE] |  |  | IC50 (D(1A) dopamine receptor): 2.5 µM; IC50 (D(2) dopamine receptor): 6800 nM
4 | CN1CCc2ccc3c4c2[C@H]1Cc1cccc(c1-4)[C@H]3O |  | 24 | Ki [1]: 14 nM
5 | COc1cc2c(cc1O)C[C@H]1c3c(c(Br)c(O)c(OC)c3-2)CCN1C [3-BROMOBOLDINE] | 0.049 | 740 | 
6 | CCc1cccc2c1-c1cccc3c1[C@@H](C2)N(C)CC3 |  | 79 | 
7 | CCCN1CCc2cc(O)cc3c2C1Cc1ccccc1C3 (stereo unspecified) | 30 | 40000 | 
8 | CCCN1CCc2cc(OC)cc3c2[C@H]1Cc1ccc(O)c(O)c1-3 |  |  | IC50 (D(2) dopamine receptor): 10.2 nM
9 | CC(=O)N[C@H]1c2cccc3c2-c2c1ccc1c2[C@@H](C3)N(C)CC1 |  | 8000 | Ki [2]: 720 nM; Ki [1]: 1320 nM
10 | CO[C@]1(C)c2cccc3c2-c2c1ccc1c2[C@@H](C3)N(C)CC1 |  | 7 | Ki [2]: 17 nM; Ki [1]: 1.1 nM
11 | COc1c(O)c2c3c(nccc3c1OC)C(C)(C)c1cc(O)ccc1-2 [MELOSMINE] |  |  | IC50 (D(1A) dopamine receptor): 12.5 µM; IC50 (D(2) dopamine receptor): 80000 nM; IC50 [3]: 24.6 µM
12 | CN1CCc2cccc3c2[C@H]1Cc1ccc(O)c(O)c1-3 [APOMORPHINE] |  |  | ED50 [4]: 0.018 µmol/kg
13 | CN1CCc2ccc3c(=O)oc4cccc5c4c3c2[C@H]1C5 |  | 270 | Ki [2]: 2000 nM; Ki [1]: 1500 nM
14 | CCN1CCc2cc(O)cc3c2C1Cc1ccccc1C3 (stereo unspecified) | > 20 | 15000 | 
15 | Cc1cccc(C#N)c1-c1cccc2c1-c1cccc3c1[C@@H](C2)N(C)CC3 (stereo in doubt; 58) |  |  | Ki [1]: 3.8 nM
16 | COc1c(O)c2c3c(c1OC)CCN(C)C3Cc1ccccc1-2 (stereo unspecified) |  |  | IC50 (D(1A) dopamine receptor): 17.2 µM; IC50 (D(2) dopamine receptor): 2800 nM; IC50 [3]: 40 µM
17 | Oc1ccc2c(c1)C[C@H]1NCCc3cc4c(c-2c31)OCO4 [ANOLOBINE] |  |  | IC50 (D(1A) dopamine receptor): 36 µM; IC50 (D(2) dopamine receptor): 15000 nM
18 | COc1cc2c(cc1OC)-c1c(OC)c(O)c(I)c3c1[C@H](C2)N(C)CC3 | 0.006 | 830 | 
19 | COc1cc2c(cc1O)Oc1c(O)ccc3c1[C@H](C2)N(C)CC3 [CELTISINE] |  |  | IC50 (D(1A) dopamine receptor): 0.06 µM; IC50 (D(2) dopamine receptor): 30 nM
20 | Oc1cc2c3c(c1O)Cc1ccccc1CC3NCC2 (stereo unspecified) | 10.8 | 8000 | 
21 | COc1cc2c3c(c1OC)-c1c(ccc(O)c1O)CC3N(C)CC2 (stereo unspecified) [SUAVEOLINE] |  |  | IC50 (D(1A) dopamine receptor): 63 µM; IC50 [3]: > 100 µM
22 | CCCN1CCc2cc(F)cc3c2[C@H]1Cc1cccc(OC=O)c1-3 | 0.8 | 39 | 
23 | CN1CCc2ccc3c4c2[C@H]1Cc1cccc(c1-4)[C@]3(C)O |  | 26 | Ki [1]: 4.3 nM
24 | CCCN1CCc2cc(SC)cc3c2[C@H]1Cc1ccc(O)c(O)c1-3 |  | 3.7 | 
25 | COc1cc2c(cc1OC)-c1c(OC)c(O)cc3c1[C@H](C2)N(C)CC3 [PREDICENTRINE] | 0.24 | 760 | 
26 | COc1cc2c(cc1OC)-c1c(OC)c(OC)c(I)c3c1[C@H](C2)N(C)CC3 | 2.11 | 4500 | 

Row | Structure (SMILES) | Ki (D(1A) dopamine receptor) [µM] | Ki (D(2) dopamine receptor) [nM] | also measured
27 | Cc1cccc(O)c1-c1cccc2c1-c1cccc3c1[C@@H](C2)N(C)CC3 (stereo in doubt; 60) |  | > 100000 | Ki [2]: 49000 nM; Ki [1]: 23 nM
28 | CC(=O)N[C@@H]1c2cccc3c2-c2c1ccc1c2[C@@H](C3)N(C)CC1 |  | 3600 | Ki [2]: 200 nM; Ki [1]: 540 nM
29 | CN1CCc2cc(O)cc3c2C1Cc1ccccc1C3 (stereo unspecified) | 6.4 | 8900 | 
30 | COc1cc2c(cc1OC)-c1c(OC)c(OC)c(Br)c3c1[C@H](C2)N(C)CC3 | 0.52 | 2400 | 
31 | CN1CCc2ccc3c(=O)[nH]c4cccc5c4c3c2[C@H]1C5 |  | 6100 | Ki [2]: 370 nM; Ki [1]: 340 nM
32 | Cc1cccc(O)c1-c1cccc2c1-c1cccc3c1[C@@H](C2)N(C)CC3 (stereo in doubt; 59) |  | > 100000 | Ki [2]: 300000 nM; Ki [1]: 4.3 nM
33 | Cc1ccc2c(c1O)-c1cccc3c1[C@@H](C2)N(C)CC3 |  | 1070 | 
34 | CCCN1CCc2cccc3c2C1Cc1cc(O)ccc1O3 (stereo unspecified) | > 10 | > 10000 | 
35 | CN1CCc2cc(O)c(O)c3c2C1Cc1ccccc1C3 (stereo unspecified) | 6.1 | 15000 | 
36 | O=C1c2ccccc2-c2c3c(cc4ccnc1c24)OCO3 [LIRIODENINE] |  |  | IC50 (D(1A) dopamine receptor): 75 µM; IC50 (D(2) dopamine receptor): 59000 nM
37 | Cc1cccc(C#N)c1-c1cccc2c1-c1cccc3c1[C@@H](C2)N(C)CC3 (stereo in doubt; 57) |  | 2500 | Ki [2]: 800000 nM; Ki [1]: 21 nM
38 | Cc1ccc2c(c1O)-c1cccc3c1[C@@H](C2)NCC3 | > 20 | > 10000 | 
39 | CN1CCc2cc(O)cc3c2C1Cc1ccccc1O3 (stereo unspecified) | 3 | 270 | 
40 | CN1CCc2ccc3c4c2[C@@]1(C)Cc1cccc(c1-4)C3 |  | 83 | Ki [2]: 41 nM; Ki [1]: 7 nM
41 | CCN1CCc2cc(O)c(O)c3c2C1Cc1ccccc1C3 (stereo unspecified) | 8.3 | 16000 | 
42 | CN1CCc2ccc3oc(=O)c4cccc5c4c3c2[C@H]1C5 |  | 540 | Ki [2]: 1150 nM; Ki [1]: 280 nM
43 | C[C@H]1c2cccc3c2-c2c1ccc1c2[C@@H](C3)N(C)CC1 |  | 39 | Ki [2]: 31 nM; Ki [1]: 6 nM
44 | CCCN1CCc2cc(O)cc3c2[C@H]1Cc1ccc(O)c(O)c1-3 |  |  | IC50 (D(2) dopamine receptor): 0.07 nM
45 | c1ccc2c(c1)C[C@H]1NCCc3cc4c(c-2c31)OCO4 [ANONAINE] |  |  | IC50 (D(1A) dopamine receptor): 68 µM; IC50 (D(2) dopamine receptor): 19000 nM
46 | CO[C@@]1(C)c2cccc3c2-c2c1ccc1c2[C@@H](C3)N(C)CC1 |  | 71 | Ki [2]: 17 nM; Ki [1]: 1.1 nM
47 | CN1CCc2cc(-c3ccc(O)cc3)cc3c2[C@H]1Cc1cccc(O)c1-3 | 0.17 | 3.8 | 
48 | CN1CCc2ccc3c4c2[C@H]1Cc1cccc(c1-4)[C@@H]3N |  |  | Ki [2]: 360 nM; Ki [1]: 18 nM
49 | COc1cc2c3c(c1OC)Cc1ccccc1CC3N(C)CC2 (stereo unspecified) | 7.2 | > 20000 | 
50 | CCCCCCCCCCCCCCCCCCCCCC(=O)Oc1cccc2c1-c1cccc3c1[C@@H](C2)N(CCC)CC3 | > 10 | 180 | 
51 | Oc1cccc2c1-c1cccc3c1[C@@H](C2)NCC3 |  | 1000 | 
52 | COc1ccc2c(c1O)Oc1c(OC)ccc3c1[C@H](C2)N(C)CC3 [SARCOCAPNIDINE] |  |  | IC50 (D(1A) dopamine receptor): 50 µM; IC50 (D(2) dopamine receptor): 2000 nM

Row | Structure (SMILES) | Ki (D(1A) dopamine receptor) [µM] | Ki (D(2) dopamine receptor) [nM] | also measured
53 | CN1CCc2ccc3c4c2[C@H]1Cc1cccc(c1-4)[C@H]3N |  | 260 | Ki [2]: 140 nM; Ki [1]: 13 nM
54 | COc1cc2c3c(c1OC)Cc1ccccc1CC3NCC2 (stereo unspecified) | 4.3 | 13000 | 
55 | COc1ccc2c(c1O)Oc1c(O)ccc3c1[C@H](C2)N(C)CC3 [CLAVICULINE] |  |  | IC50 (D(1A) dopamine receptor): 1 µM; IC50 (D(2) dopamine receptor): 1500 nM; IC50 [3]: > 100 µM
56 | CCCN1CCc2cc(OC)cc3c2C1Cc1ccccc1C3 (stereo unspecified) | 11.6 | 14000 | 
57 | CCCN1CCc2cc(OC)c(OC)c3c2C1Cc1ccccc1C3 (stereo unspecified) | > 70 | 14000 | 
58 | COc1cc2c(cc1O)C[C@H]1c3c(c(I)c(O)c(OC)c3-2)CCN1C | 0.002 | 68 | 
59 | COc1cccc2c1-c1c3c(cc4c1C(C2)N(C)CC4)OCO3 (stereo unspecified) |  |  | IC50 (D(1A) dopamine receptor): > 100 µM; IC50 (D(2) dopamine receptor): > 100000 nM; IC50 [3]: 32 µM
60 | C[C@@H]1c2cccc3c2-c2c1ccc1c2[C@@H](C3)N(C)CC1 |  | 19 | Ki [2]: 5.1 nM; Ki [1]: 3.3 nM
61 | COc1cc2c(cc1OC)-c1c(OC)c(O)c(Br)c3c1[C@H](C2)N(C)CC3 | 0.015 | 610 | 
62 | COc1c2c3c(c4c1OCO4)-c1ccccc1C[C@H]3NCC2 [NORSTEPHALAGINE] |  |  | IC50 (D(1A) dopamine receptor): 4.8 µM; IC50 (D(2) dopamine receptor): 27000 nM
63 | CCCN1CCc2cc(O)cc3c2C1Cc1ccccc1O3 (stereo unspecified) | > 10 | > 10000 | 
64 | CCCN1CCc2cccc3c2[C@H]1Cc1ccc(C)c(O)c1-3 | 2 | 250 | 
65 | COc1cc2c(cc1OC)Oc1c(O)ccc3c1[C@H](C2)N(C)CC3 [CULARIDINE] |  |  | IC50 (D(1A) dopamine receptor): 0.8 µM; IC50 (D(2) dopamine receptor): 300 nM
66 | Oc1cc2c3c(c1)Cc1ccccc1CC3NCC2 (stereo unspecified) | 3.7 | 20000 | 
67 | CCN1CCc2cccc3c2C1Cc1cc(O)ccc1O3 (stereo unspecified) |  | > 10000 | 
68 | CN1CCc2ccc3c4c2[C@H]1Cc1cccc(c1-4)[C@@H]3O |  | 210 | Ki [1]: 100 nM
69 | COc1c(O)c2c3c(c1OC)CCN[C@@H]3Cc1ccccc1-2 [ISOPILINE] |  |  | IC50 (D(1A) dopamine receptor): 9.8 µM; IC50 (D(2) dopamine receptor): 30000 nM
70 | COc1cc2c3c(c1OC)Cc1ccccc1CC3N(Cc1ccccc1)CC2 (stereo unspecified) | > 60 | 4900 | 
71 | COc1cc2c3c(c1)Cc1ccccc1CC3N(C)CC2 (stereo unspecified) | 8.6 | 8200 | 
72 | COc1cc2c(cc1O)C[C@H]1c3c(ccc(O)c3O2)CCN1C [BREOGANINE] |  |  | IC50 (D(1A) dopamine receptor): 0.1 µM; IC50 (D(2) dopamine receptor): 200 nM
73 | CCCN1CCc2cc(O)c(O)c3c2C1Cc1ccccc1C3 (stereo unspecified) | 22.3 | 6700 | 
74 | COc1cc2c3c(c1)Cc1ccccc1CC3NCC2 (stereo unspecified) | 6.3 | 19000 | 
75 | CCCN1CCc2cccc3c2[C@H]1Cc1cccc(OC(C)=O)c1-3 | > 10 |  | 
76 | CN1CCc2ccc3c4c2[C@H]1Cc1cccc(c1-4)[C@@]3(C)O |  | 180 | Ki [2]: 310 nM; Ki [1]: 28 nM
